This note sets out measurements from ChEMBL document CHEMBL1201862, “PubChem BioAssay data set” (2004).

Activity calls are given as the source filed them.

Test [1] concerns the target Voltage-gated inwardly rectifying potassium channel KCNH2 (Homo sapiens, UniProt Q12809). The settings on record: Potency.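 Note: confirmatory quantitative high-throughput screen measuring inhibition of hERG channel activity.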
A short description of test [2]: cells. The format is functional.
Test [3] in a line: NIH-3T3 fibroblast cytotoxicity, dose response, cytotoxicity control, cell-based, fluorescence, Alamar Blue, secondary assay (AID 2327).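 Note: NIH-3T3 mouse fibroblasts cultured with fluconazole at 8 µg/mL.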 In kind it is functional.
A short description of test [4]: Vero E6 cell cytotoxicity, dose response, cytotoxicity control for non-replicating M. tuberculosis project, secondary assay (AID 492998). The settings on record: Vero C1008. In kind it is functional, VeroE6.
Test [5] concerns the target Dual specificity tyrosine-phosphorylation-regulated kinase 1A (Rattus norvegicus, UniProt Q63470). The format is biochemical, Homo sapiens.
The target in test [6] is T1, Oxysterols receptor LXR-beta (Homo sapiens, UniProt P55055).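 Note: Cell-based luminescence dose-response assay of agonist activity at LXR, run as a confirmatory counterscreen to a daf-12 agonist screen; HEK293 cells with Gal4-LXR fusion and GAL4-driven luciferase reporter; agonist potency from rising luciferase signal of a Gal4-LXR reporter.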
T1 sequence (P55055 whole entry): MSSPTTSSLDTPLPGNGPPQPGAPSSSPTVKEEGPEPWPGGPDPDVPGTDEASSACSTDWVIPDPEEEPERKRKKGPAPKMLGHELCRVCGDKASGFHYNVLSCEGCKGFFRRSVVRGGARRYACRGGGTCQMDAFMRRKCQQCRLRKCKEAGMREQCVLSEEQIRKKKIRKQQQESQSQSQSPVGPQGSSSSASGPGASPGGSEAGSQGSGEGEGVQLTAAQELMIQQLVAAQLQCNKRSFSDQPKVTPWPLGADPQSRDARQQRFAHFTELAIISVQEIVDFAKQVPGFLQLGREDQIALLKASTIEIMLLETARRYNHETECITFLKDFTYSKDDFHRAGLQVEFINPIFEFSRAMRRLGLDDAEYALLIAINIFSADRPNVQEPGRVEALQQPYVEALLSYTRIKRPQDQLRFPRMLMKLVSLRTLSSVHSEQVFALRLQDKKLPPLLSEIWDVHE
In kind it is functional, cell-based.

The nature of test [7]: THP-1 cell cytotoxicity, dose response, cytotoxicity control for non-replicating M. tuberculosis project (AID 489025). In kind it is functional.
In test [8] the target is Dual specificity protein kinase CLK1 (Homo sapiens, UniProt P49759). Put plainly: CLK1 kinase inhibitors, off-target check, dose response, selectivity assay for Dyrk1A inhibitor project, biochemical, cherry-picked samples (AID 588811).
For test [9], the target named is T2, Luciferin 4-monooxygenase (Photinus pyralis, UniProt P08659). Put plainly: Counter Screen for Luciferase-based Assay Positives. [Related pubchem assays: 620, 618, 411 ]. For orientation: A counterscreen serves to expose hits that act by an unwanted route or on another target.
The next test deals with HT-1080. As to the kind of experiment: cytotoxicity in HT1080 fibrosarcoma cells, cell-based, fluorescence readout (AID 620). The format is functional. The settings on record: Homo sapiens.
Test [10] can be described thus: inhibitors of SNCA 5'UTR-driven reporter translation, confirmation, H4 neuroglioma cells, luminescence (AID 1988). In kind it is functional, cell-based.
Test [11] can be described thus: cells.
The nature of test [12]: C. albicans growth with fluconazole, confirmation, fluorescence, retest (AID 2467). The format is functional, cell-based.
A short description of test [13]: HepG2 cell cytotoxicity, dose response, cytotoxicity control for non-replicating M. tuberculosis project (AID 489018). The format is functional. The settings on record: Mycobacterium tuberculosis.
The target of test [14] is Glycogen synthase kinase-3 alpha (Homo sapiens, UniProt P49840). Put plainly: Inhibition of Human GSK-3 alpha Activity Measured in Biochemical System Using Microfluidics - 2063-06_Inhibitor_Dose_DryPowder_Activity. [Related pubchem assays (depositor defined):AID2709].
In test [15] the target is Glycogen synthase kinase-3 beta (Homo sapiens, UniProt P49841). As to the kind of experiment: Inhibition of Human GSK-3 beta Activity Measured in Biochemical System Using Microfluidics - 2063-05_Inhibitor_Dose_DryPowder_Activity. [Related pubchem assays (depositor defined):AID2709].
In test [16] the target is T3, E3 ubiquitin-protein ligase XIAP (Homo sapiens, UniProt P98170). As to the kind of experiment: Counter Screen using XIAP-Bir3 for Chemical Antagonists of Bir1/2 domains of IAP-family anti-apoptotic proteins. [Related pubchem assays (depositor defined):AID1018, AID1449, AID1514, AID1638, AID1749, AID1750, AID488957, AID488963].
In test [17] the target is T3, E3 ubiquitin-protein ligase XIAP. As to the kind of experiment: XIAP antagonists, biochemical, IAP family, fluorescence polarization (AID 1018). The format is functional. On the technique in general: Fluorescence polarisation rises when a labelled molecule tumbles more slowly, as on binding a larger partner.
For a further test, the system named is CHO. As to the kind of experiment: cytotoxicity in TLR9-MyD88 CHO cells, dose response, cytotoxicity control for TLR9-MyD88 binding inhibitor project, cell-based, luminescence (AID 588339).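 Note: CHO cells stably coexpressing TLR9 and MyD88 fusions from primary screen; compound exposure lasted 48 hours before viability readout.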 The format is functional, hamster. The conditions noted are these: Cricetulus griseus.
For another test, the target named is Troponin, cardiac muscle (Homo sapiens, UniProt P19429+P45379+P63316). Put plainly: Fluorescence-based biochemical high throughput dose response assay for activators of the calcium sensitivity of cardiac Regulated Thin Filaments (RTF). [Related pubchem assays (depositor defined):AID493008, AID493018, AID504382, AID504383]. In kind it is protein-complex assay.

In test [18] the target is T4, Short transient receptor potential channel 4 (Mus musculus, UniProt Q9QUQ5).
T4 sequence (Q9QUQ5 whole entry): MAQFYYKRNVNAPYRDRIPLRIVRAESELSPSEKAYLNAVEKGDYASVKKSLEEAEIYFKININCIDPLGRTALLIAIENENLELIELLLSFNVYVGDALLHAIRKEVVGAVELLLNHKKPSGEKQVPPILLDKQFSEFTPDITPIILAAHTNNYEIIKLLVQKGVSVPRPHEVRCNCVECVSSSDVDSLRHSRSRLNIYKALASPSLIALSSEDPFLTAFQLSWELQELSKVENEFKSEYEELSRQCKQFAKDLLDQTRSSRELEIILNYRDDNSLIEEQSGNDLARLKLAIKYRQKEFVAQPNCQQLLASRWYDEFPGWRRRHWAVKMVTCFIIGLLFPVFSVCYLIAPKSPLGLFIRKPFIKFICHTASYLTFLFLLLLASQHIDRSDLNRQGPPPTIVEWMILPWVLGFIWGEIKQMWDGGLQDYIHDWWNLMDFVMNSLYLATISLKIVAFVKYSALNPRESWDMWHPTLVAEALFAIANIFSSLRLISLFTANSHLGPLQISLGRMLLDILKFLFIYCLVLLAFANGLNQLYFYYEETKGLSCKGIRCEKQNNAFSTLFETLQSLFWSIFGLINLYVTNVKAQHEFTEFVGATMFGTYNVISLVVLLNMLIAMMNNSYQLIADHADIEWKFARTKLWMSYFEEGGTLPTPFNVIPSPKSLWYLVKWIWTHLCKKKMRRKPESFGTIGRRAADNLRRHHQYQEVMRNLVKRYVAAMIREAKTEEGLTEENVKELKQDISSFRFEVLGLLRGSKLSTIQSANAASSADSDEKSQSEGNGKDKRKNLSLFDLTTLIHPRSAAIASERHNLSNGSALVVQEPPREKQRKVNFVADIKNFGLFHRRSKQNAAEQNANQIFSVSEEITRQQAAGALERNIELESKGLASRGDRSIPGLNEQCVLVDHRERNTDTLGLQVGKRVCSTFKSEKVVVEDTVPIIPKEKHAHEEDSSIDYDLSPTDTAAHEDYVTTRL
Put plainly: TRPC4 inhibitor concentration-response, dose response, cell-based, HEK293 TRPC4/mu-opioid, DAMGO stimulus, Fluo-4 (AID 492994). In kind it is functional.

For test [19], the target named is T4, Short transient receptor potential channel 4. As to the kind of experiment: SAR Analysis for the identification of selective inhibits of the transient receptor potential cation channel C4 (TRPC4): Automated Electrophysiology. [Related pubchem assays (depositor defined):AID2256]. The format is functional.
A further test deals with Candida albicans. Put plainly: reversal of fluconazole resistance in C. albicans, dose response, CaCi-2 strain, Alamar Blue, dry powder, set 3 (AID 488907). In kind it is functional, organism-based. For orientation: Resazurin is reduced to fluorescent resorufin, in cell work by metabolically active cells.
Another test has as its target HSP90 (Plasmodium falciparum 3D7, UniProt Q8IL32). The format is functional, organism-based.
A further test has as its system Streptococcus. Put plainly: Group A Streptococcus viability loss, dose response, counter-screen for streptokinase expression inhibitor project, luminescence, BacTiterGlo (AID 1915).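 Note: potency for reduction of bacterial viability or growth.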 In kind it is functional, organism-based.
The target in a further test is T5, Streptokinase A (Streptococcus pyogenes serotype M1, UniProt P10520).
T5 sequence (P10520 whole entry): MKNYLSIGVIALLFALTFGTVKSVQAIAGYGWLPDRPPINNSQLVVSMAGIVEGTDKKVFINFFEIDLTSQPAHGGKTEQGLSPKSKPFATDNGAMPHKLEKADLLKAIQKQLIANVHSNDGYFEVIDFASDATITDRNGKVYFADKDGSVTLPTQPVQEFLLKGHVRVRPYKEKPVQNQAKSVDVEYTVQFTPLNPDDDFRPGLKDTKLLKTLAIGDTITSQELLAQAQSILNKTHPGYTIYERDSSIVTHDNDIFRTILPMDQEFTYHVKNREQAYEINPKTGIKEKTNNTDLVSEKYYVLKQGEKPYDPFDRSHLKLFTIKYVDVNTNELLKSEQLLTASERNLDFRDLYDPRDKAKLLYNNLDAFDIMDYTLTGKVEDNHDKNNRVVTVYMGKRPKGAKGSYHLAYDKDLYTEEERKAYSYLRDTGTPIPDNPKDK
Put plainly: S. pyogenes streptokinase expression inhibitors, potency, dose response, plasminogen activation absorbance, OD405 (AID 1914).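 Note: secreted streptokinase activity via plasminogen activation per viability signal from cell pellet.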 In kind it is functional, Streptococcus pyogenes M1 GAS.

Test [20] addresses Heat shock protein HSP 90-alpha (Homo sapiens, UniProt P07900). The format is functional, organism-based.
The target in test [21] is T2, Luciferin 4-monooxygenase. Put plainly: firefly luciferase enzyme inhibitors, dose response, biochemical, luminescence (AID 1891).
The nature of test [22]: Luminescence Cell-Based Dose Confirmation HTS to Identify Inhibitors of Platelet Dense Granule Release. [Related pubchem assays: 1663 (Primary HTS), 1678 (Summary of Project)]. The format is functional.
The target of test [23] is T6, Endoribonuclease toxin MazF (Escherichia coli K-12, UniProt P0AE70). Put plainly: MazF toxin RNase activators, dose response, biochemical, fluorescence, single-stranded RNA substrate, uHTS hits (AID 588481). In kind it is functional.
For test [24], the target named is T6, Endoribonuclease toxin MazF. Put plainly: fluorescent RNA oligo signal without MazF, dose response, counter-screen for MazEF activator project, biochemical, fluorescence, single-stranded RNase substrate (AID 588502). The format is functional.

T2 sequence (P08659 whole entry): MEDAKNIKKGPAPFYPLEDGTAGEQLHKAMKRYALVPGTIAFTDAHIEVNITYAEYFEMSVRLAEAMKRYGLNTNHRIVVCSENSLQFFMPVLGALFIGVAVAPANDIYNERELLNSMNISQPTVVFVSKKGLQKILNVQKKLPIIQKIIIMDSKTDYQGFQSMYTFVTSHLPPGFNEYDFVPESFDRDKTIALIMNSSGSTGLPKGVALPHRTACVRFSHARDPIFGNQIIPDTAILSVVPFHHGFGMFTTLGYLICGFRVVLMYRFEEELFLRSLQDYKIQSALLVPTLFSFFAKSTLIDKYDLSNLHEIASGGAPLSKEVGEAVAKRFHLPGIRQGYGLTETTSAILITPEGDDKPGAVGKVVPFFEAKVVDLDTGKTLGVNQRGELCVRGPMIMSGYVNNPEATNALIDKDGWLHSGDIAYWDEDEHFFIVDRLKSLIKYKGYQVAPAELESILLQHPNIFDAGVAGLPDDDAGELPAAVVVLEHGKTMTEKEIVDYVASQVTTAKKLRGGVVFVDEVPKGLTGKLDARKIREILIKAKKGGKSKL
T3 sequence (P98170 whole entry): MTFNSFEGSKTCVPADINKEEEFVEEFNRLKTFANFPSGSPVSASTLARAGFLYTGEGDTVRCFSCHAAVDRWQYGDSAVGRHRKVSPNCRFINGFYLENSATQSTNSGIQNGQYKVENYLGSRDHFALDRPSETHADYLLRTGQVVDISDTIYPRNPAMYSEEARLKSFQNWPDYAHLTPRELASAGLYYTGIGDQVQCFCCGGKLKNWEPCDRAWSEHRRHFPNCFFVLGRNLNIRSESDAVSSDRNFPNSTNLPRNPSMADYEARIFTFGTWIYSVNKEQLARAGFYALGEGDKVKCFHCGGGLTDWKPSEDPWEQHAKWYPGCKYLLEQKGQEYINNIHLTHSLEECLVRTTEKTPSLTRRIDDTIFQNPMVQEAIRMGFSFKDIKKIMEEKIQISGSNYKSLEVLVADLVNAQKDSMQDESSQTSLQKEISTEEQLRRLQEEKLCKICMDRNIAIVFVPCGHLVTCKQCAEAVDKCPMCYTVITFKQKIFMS
T6 sequence (P0AE70 whole entry): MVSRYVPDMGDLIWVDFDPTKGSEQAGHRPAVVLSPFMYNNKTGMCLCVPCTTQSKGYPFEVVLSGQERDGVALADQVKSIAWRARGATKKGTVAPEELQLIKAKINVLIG
Sequence of Voltage-gated inwardly rectifying potassium channel KCNH2 (Q12809 whole entry): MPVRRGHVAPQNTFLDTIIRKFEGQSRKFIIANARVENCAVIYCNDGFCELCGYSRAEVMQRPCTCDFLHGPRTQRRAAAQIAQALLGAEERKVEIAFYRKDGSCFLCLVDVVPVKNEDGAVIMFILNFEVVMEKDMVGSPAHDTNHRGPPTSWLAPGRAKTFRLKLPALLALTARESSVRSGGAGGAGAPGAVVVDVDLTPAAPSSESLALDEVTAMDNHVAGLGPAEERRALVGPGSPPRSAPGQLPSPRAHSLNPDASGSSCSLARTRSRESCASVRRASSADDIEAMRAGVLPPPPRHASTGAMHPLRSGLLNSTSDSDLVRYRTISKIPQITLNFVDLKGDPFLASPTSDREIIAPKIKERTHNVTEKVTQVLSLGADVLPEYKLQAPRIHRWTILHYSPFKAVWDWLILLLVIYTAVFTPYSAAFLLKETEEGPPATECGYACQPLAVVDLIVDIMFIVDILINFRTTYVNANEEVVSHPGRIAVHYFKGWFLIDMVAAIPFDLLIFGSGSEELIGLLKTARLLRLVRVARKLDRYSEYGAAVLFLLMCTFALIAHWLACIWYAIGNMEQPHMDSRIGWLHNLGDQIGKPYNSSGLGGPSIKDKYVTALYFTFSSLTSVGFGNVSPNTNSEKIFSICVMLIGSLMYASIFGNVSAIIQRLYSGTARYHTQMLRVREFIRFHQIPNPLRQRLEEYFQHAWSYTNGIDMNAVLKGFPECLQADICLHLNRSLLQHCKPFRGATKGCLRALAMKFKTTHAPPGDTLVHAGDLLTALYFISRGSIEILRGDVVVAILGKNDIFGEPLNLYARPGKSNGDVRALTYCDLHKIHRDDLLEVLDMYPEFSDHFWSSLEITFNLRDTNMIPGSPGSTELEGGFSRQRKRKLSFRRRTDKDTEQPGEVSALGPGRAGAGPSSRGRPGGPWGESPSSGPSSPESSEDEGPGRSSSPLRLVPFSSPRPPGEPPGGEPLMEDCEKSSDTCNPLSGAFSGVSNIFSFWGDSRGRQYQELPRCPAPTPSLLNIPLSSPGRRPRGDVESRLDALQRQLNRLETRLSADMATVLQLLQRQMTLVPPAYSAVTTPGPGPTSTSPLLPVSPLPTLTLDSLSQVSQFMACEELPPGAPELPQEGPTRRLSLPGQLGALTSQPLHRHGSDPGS
Sequence of Dual specificity protein kinase CLK1 (P49759 whole entry): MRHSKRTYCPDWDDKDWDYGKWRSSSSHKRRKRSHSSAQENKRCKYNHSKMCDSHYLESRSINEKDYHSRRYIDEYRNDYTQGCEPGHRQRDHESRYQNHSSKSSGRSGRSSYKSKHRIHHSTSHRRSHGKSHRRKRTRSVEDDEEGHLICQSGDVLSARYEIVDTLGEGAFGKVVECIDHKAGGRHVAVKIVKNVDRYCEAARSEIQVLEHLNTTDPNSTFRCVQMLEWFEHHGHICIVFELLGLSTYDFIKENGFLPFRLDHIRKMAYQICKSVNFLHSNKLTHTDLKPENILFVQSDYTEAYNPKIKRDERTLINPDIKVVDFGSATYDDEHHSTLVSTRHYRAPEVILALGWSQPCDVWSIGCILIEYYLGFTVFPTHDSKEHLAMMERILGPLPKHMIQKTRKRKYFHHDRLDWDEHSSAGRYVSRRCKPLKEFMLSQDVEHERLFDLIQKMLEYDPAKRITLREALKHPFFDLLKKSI
Sequence of HSP90 (Q8IL32 whole entry): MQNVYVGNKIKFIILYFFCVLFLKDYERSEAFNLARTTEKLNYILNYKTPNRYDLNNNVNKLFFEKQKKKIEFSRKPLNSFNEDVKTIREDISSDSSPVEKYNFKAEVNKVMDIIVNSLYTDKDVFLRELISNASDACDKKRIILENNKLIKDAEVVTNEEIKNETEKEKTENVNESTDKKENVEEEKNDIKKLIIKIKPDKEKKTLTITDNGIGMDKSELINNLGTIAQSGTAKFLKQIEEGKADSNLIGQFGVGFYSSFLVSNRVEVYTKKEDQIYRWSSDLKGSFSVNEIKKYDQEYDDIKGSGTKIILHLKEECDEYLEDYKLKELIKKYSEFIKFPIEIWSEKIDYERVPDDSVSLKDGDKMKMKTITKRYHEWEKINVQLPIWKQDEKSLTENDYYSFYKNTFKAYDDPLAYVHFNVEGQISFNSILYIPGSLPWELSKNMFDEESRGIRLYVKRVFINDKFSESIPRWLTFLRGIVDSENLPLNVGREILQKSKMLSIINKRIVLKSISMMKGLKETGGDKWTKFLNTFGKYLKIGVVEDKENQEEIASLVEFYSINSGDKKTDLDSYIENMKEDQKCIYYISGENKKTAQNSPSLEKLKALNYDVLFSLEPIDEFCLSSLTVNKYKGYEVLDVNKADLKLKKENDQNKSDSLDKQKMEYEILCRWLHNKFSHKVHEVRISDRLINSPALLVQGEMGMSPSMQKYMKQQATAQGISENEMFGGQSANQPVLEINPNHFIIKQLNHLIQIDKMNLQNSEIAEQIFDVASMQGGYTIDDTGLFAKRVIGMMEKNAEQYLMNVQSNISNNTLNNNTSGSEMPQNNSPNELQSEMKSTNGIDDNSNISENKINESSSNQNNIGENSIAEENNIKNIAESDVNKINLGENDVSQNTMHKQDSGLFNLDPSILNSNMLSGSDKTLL
Sequence of Glycogen synthase kinase-3 beta (P49841 whole entry): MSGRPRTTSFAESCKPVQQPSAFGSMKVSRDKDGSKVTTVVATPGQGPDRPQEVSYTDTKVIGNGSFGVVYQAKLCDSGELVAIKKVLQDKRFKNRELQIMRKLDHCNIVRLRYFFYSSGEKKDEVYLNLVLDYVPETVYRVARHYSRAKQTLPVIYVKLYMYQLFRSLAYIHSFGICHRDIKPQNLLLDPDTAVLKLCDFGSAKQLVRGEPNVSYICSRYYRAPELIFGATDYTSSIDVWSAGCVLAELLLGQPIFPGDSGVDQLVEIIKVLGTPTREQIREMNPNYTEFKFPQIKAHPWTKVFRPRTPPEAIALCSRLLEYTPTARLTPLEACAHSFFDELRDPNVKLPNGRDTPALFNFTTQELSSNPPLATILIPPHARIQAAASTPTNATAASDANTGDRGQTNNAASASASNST
Sequence of Glycogen synthase kinase-3 alpha (P49840 whole entry): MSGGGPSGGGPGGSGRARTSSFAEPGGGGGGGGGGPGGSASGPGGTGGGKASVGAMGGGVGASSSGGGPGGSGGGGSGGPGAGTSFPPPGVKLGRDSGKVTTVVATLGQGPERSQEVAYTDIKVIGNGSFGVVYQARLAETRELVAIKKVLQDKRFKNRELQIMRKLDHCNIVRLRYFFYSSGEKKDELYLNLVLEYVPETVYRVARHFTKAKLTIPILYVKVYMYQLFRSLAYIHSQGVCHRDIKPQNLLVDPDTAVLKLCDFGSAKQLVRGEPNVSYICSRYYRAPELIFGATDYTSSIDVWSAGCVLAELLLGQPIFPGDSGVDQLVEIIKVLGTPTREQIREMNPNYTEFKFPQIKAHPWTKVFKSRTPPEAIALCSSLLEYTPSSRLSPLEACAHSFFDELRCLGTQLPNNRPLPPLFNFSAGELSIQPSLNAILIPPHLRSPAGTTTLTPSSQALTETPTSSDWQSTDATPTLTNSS

For orientation: AC50 means the concentration at which the activity in the assay is half-maximal. On to `O=C(OCCN1CCCCC1)c1c[nH]c2ccccc12`, for which, in [1], the AC50 was 20 µM (inconclusive).
One may read the IC50 as the concentration that inhibits the measured activity by half. By EC50 is commonly meant the midpoint of the concentration-response curve. For orientation: CC50 means the concentration that lowers cell viability or growth by half. For `Cc1cc(NCCCn2ccnc2)n2ncc(-c3ccc(Cl)cc3)c2n1`, the IC50 in “cells [2]” was 11.1 µM (active). The EC50 is 21.8 µM (inconclusive) in test [3]; > 67.6 µM (inactive) in test [6]; 2.18 µM (active) in test [9]; 35 µM (active) in the test with HT-1080; 9.97 µM (inconclusive) in [10]; > 67.6 µM (inactive) in “cells [11]”. Further, the EC50 in test [12] is 3.66 µM (active). Also, the CC50 in test [4] is 7.48 µM (active); in test [7] it was 22 µM (active); in test [13] it was > 20 µM (active). The AC50 in test [5] is 2.85 µM (active); in [8] it was 5.5 µM (active).
For the compound `CCCn1nc(NC(=O)c2cccs2)c2cc3cc(OC)ccc3nc21`, the AC50 is 9.59 µM (active) in [14] and 0.445 µM (active) in test [15].
Turning to `CCC1(C)OC(c2ccccc2)=C/C(=C/C=C2C(=O)NC(=O)NC2=O)O1` (configuration not stated), the IC50 was > 100 µM (inactive) in test [16], > 100 µM (not active) in test [17] and > 49.7 µM (inactive) in the test with CHO. Besides, the EC50 at Troponin, cardiac muscle is 2.38 µM (active).
`Cc1cc(N2CCOCC2)nc2ccccc12`: the values for the IC50 in [18] and in [19] were 39 µM (active) and 140 µM (inactive), respectively.
As for `COCCC(=O)N1CCN(c2ccccn2)CC1`, the AC50 with Candida albicans was 5.95 µM (active).
Consider `COc1ccccc1/N=c1\oc2cc(O)ccc2cc1C(N)=O`, for which the results for the AC50 (on HSP90; in test [5]; in test [20]) were 27.5 µM (active), 0.139 µM (active) and 17.3 µM (active), respectively. Besides, the EC50 is 42 µM (active) with Streptococcus, > 150 µM (not active) at Streptokinase A, 1.15 µM (active) in [21] and 3.1 µM (active) in test [22].
Turning to `Oc1nc(N/N=C\c2ccc(F)cc2)nc2ccccc12`, the EC50 in [23] is 7.12 µM (active); in [24], > 99 µM (inactive).
